Assay results from patent EP2371816A1, “Aminocyclohexenone, their preparation and use as medicament against oxidative stress” (ABIOGEN PHARMA S.p.A., priority 2010, dated 2011).

How the values were obtained:
C6 cells (rat glioma) = assay: In vitro inhibition of CHP-induced oxidative stress (DCF fluorescence) in C6 cells; format: cell-based; details: 500 µM CHP, compound 4, 20, 100 and 500 µM, 30 minutes at 37 °C, range given for both cell lines together
Experimental: (§1) The method used was essentially the one reported by Rüweler M. et al. ("Inhibition of peroxide-induced radical generation by plant polyphenols in C6 astroglioma cells" (2008) Toxicol in vitro 22, 1377-81), with a few minor modifications.
(§2) The cells were seeded in phenol-red free DMEM (Sigma Aldrich) into 96-well plates with 5% FBS and 20 mM HEPES at a density of 40,000 cells/well. After 48 hours, the medium was substituted by HBSS (Hanks' Balanced Salt Solution, Sigma) containing 10 µM of dihydro-2',7'-dichlorofluorescein diacetate (H2DCF-DA, Sigma Aldrich) and incubated in darkness for 30 minutes at 37 °C, in order to load the cells with fluorescent dye. H2DCF-DA was hydrolyzed enzymatically by the intracellular esterases to form non-fluorescent H2DCF, which was then rapidly oxidized to form 2',7'-dichlorofluorescein (DCF) being highly fluorescent in the presence of reactive species (RS). The intensity of DCF fluorescence is directly proportional to the amount of RS formed.
(§3) After carrying out two washes, the cells were exposed to 500 µM of CHP and various concentrations (4, 20, 100 and 500 µM) of the compounds of the invention for 30 minutes at 37 °C. Fluorescence was then measured, after cell washing, by a microplate reader at an excitation wavelength of 485 nm and an emission wavelength of 535 nm.
(§4) Six wells per plate per concentration of test composition (compound + CHP) and per control (HBSS without CHP) were measured and 12 wells were used as reference for CHP-induced stress. In addition, each 96-well plate contained 6 wells that received the highest concentration of the tested compounds without CHP, to investigate whether the compounds of the invention alone were able to induce cellular radical formation.
(§5) When using this assay, it should be borne in mind that DCF fluorescence is a generalized indicator of oxidative stress rather than of any particular reactive species, i.e. it is not a direct assay for H2O2 or other reactive species (Halliwell B, Whiteman M. (2004) "Measuring reactive species and oxidative damage in vivo and in cell culture: how should you do it and what do the results mean?" Br. J. Pharmacol. 142 231-255). Therefore, when an increase in DCF fluorescence induced by exposure of cells to CHP was measured, as was undertaken in these assays, it was not possible to deduce which reactive species was responsible. Inhibition of CHP-induced fluorescence was evaluated by means of different concentrations of the compounds of the invention and comparative compounds such as Trolox and edaravone.

[1] = tested on: BAEC cells (bovine aortic endothelial); assay: In vitro inhibition of CHP-induced oxidative stress (DCF fluorescence) in BAEC cells; format: cell-based; details: 500 µM CHP, compound 4, 20, 100 and 500 µM, 30 minutes at 37 °C, range given for both cell lines together
Experimental: as §1, §2, §3, §4, §5

[2] = Acute toxicity study, intraperitoneal single dose (OECD guideline no. 420); format: in vivo; details: result in words, with reference to Example 13
Experimental: This study was carried out with the purpose of investigating the toxicity of a single dose of the listed compounds administered to ICR (CD-1) female mice. According to the current OECD guideline no.
The mice used were all female and were treated by intraperitoneal injection administration. The animals were observed individually and regularly for the first 4 hours and within 24 hours after administration, and then twice a day for the whole observation period. As soon as the animals were stabilized, observations at the weekend were undertaken once only during the day.
The evaluated parameters included the survival, body weight development, variations in skin and fur, changes in ocular, conjunctival and buccal mucous membranes, changes in activities of the respiratory, circulatory, autonomous and central nervous systems, changes in somatomotor activity and in behaviour.
Any appearance of tremors, convulsions, salivation, diarrhea, lethargy, drowsiness and coma were attentively and regularly monitored. At the end of the observation period, a post-mortem was carried out on all the animals.

[3] = TEAC method (Trolox Equivalent Antioxidant Capacity Assay); details: ratio of gradient to gradient of reference (trolox); 37 °C, 650 nm, pH 4.5
Description: This assay is used to measure the total antioxidant activity of pure substances, biological fluids and plant compounds and is based on the reaction of antioxidants with the cation radical ABTS^˙+ (2,2'-azinobis(3-ethylbenzothiazolin-6-sulphonate)). This cation radical is metastable and has to be generated just before the experiment by reacting ABTS with hydrogen peroxide in the presence of HRP.
This radical can be reduced, with consequent loss of absorbance, by an antioxidant whose scavenging capacity can be measured spectrophotometrically at 650 nm. The test is carried out at 37 °C and the results are obtained from a comparison with Trolox (a synthetic antioxidant and hydrophilic analogue of vitamin E).
The ABTS solution S1 was prepared as follows: • 20 mg of ABTS were added to 50 mM of citric acid buffer (40 ml) at pH=4.5 and to the resulting solution there was added an aqueous solution of HRP (4.4 mg, 400 µl) and an aqueous solution of H2O2 (10 µl of a 30% solution diluted with 16.3 ml of water).
For each of the compounds (2), (6) and (7), as synthesized above, there was prepared a 600 µM solution in water, methanol or DMSO according to its solubility, as well as a Trolox solution as reference.
Each solution was diluted to produce 6 solutions each at a concentration between 25 µM and 300 µM. From each of the diluted and divided solutions, there were withdrawn 20 µl to which 200 µl of solution S1 were then added.
The decrease in absorbance of each solution thus obtained was monitored at 650 nm until a stable value was reached (about 90 minutes).
For each set of 6 solutions and for the reference trolox solution, the absorption was given in graph form as a function of the amount of compound (nmol) in the solution. The gradient of the straight line obtained by linear interpolation was determined according to the least squares method. The TEAC value of each compound of the invention is given in the table below and is expressed as the ratio between the gradient of the resulting straight line and the gradient of the reference (trolox) straight line.

| SMILES | Inhibition of CHP-induced fluorescence (C6 cells (rat glioma)) | Inhibition of CHP-induced fluorescence [1] | toxicity evaluation in vivo (tolerability) [2] | TEAC [3] |
| --- | --- | --- | --- | --- |
| CC1(C)CC(=O)C=C(NCCN2CCCCC2)C1 [(1), 5,5-dimethyl-3-(2-(piperidin-1-yl)ethylamino)cyclohex-2-enone] | effective | effective | well tolerated |  |
| O=C1C=C(NCCN2CCCCC2)CC(c2ccccc2)C1 (stereo not shown) [(3), 5-phenyl-3-(2-(piperidin-1-yl)ethylamino)cyclohex-2-enone] | effective | effective |  |  |
| CC1(C)CC(=O)C=C(NN2CCCCC2)C1 [(6), 5,5-dimethyl-3-(piperidin-1-ylamino)cyclohex-2-enone] |  |  | well tolerated | 1.2 |
